The values that follow come from ChEMBL document CHEMBL3507680, “University of Dundee, Gates Library screen for HepG2 cell viability”.

SMILES strings stand for the structures.

The series in a line: Human HepG2 cell viability assay in 384 well format. On the set-up: dose 125 nL, time 70.5 hour; cytotoxicity at 70.5 h: concentration not given beside the values. The series is classed as toxicity, cell-based. The conditions noted are these: HepG2 cells, read-out: Inhibition.
Turning to `O=c1cc(Cn2cncn2)nc2n1CCCN(Cc1ccc(F)cc1)C2`, the cytotoxicity at 70.5 h came out at 0.75%.

Take `CC(C)(C)c1cc(CNC(=O)c2cc(COc3ccccc3)[nH]n2)[nH]n1`: the cytotoxicity at 70.5 h was found to be 8.48%.

Regarding `Cc1ccc(C(=O)N(C)CC(=O)N2CCCC2)c(C)c1`, the cytotoxicity at 70.5 h was -16%.

In the case of `COc1cccc(CN(Cc2ccco2)Cc2cnc(C)n2C)c1`, the cytotoxicity at 70.5 h is 3.46%.

Consider `COCCCC1(CO)CCCN(CCc2ccccn2)C1` (centres undefined), for which the cytotoxicity at 70.5 h is 0.702%.

As for `Cc1ccc(F)cc1NC(=O)c1[nH]ncc1Br`, the cytotoxicity at 70.5 h is -7.98%.

As for `CN(C)CC1CN(Cc2coc(-c3cccc(F)c3)n2)CCO1` (centres undefined), the cytotoxicity at 70.5 h amounted to 3.34%.

`CCn1cnnc1CNC(=O)c1ccc(Cl)cc1F`: the cytotoxicity at 70.5 h is -4.7%.

Turning to `CCn1c(=O)c2sccc2n(CC(=O)Nc2cccc(Cl)c2)c1=O`, the cytotoxicity at 70.5 h is 8.59%.

Consider `Cc1ccc(C(=O)N2CCC(Oc3c(C)cccc3C)CC2)c(=O)[nH]1`, for which the cytotoxicity at 70.5 h amounted to 0.338%.

As for `CCS(=O)(=O)N1CCOC2(CCCN(c3ccc(C)nn3)C2)C1` (centres undefined), the cytotoxicity at 70.5 h was -11.8%.

In the case of `O=C(Cc1ccc2c(c1)OCCO2)NCCc1nnc2n1CCC2`, the cytotoxicity at 70.5 h came to 12.2%.

As for `CN(C)CCNCC1CCOC(C)(C)C1` (centres undefined), the cytotoxicity at 70.5 h was -10.1%.

As for `Cc1nnnn1-c1cc(NCc2cccc(C#N)c2)ccc1F`, the cytotoxicity at 70.5 h is -24.4%.

As for `COCc1nc(C(=O)NS(=O)(=O)c2cc(F)ccc2F)cs1`, the cytotoxicity at 70.5 h was found to be 20.7%.

On to `CNS(=O)(=O)c1ccc(CN2CCCN(c3ccccc3)CC2)cc1`, for which the cytotoxicity at 70.5 h was found to be 18%.

Regarding `Cn1cccc1C(=O)NC[C@H]1C[C@@H]2CN(C(=O)c3ccno3)C[C@H]2O1`, the cytotoxicity at 70.5 h is -9.62%.

Take `CCc1nnc2n1CC(CNCc1ccncc1)CC2` (centres undefined): the cytotoxicity at 70.5 h was -6.39%.

For `Cc1ccsc1CN1C[C@@H]2CN(Cc3cccnc3)CCO[C@@H]2C1`, the cytotoxicity at 70.5 h is 10.4%.

For `Cc1c(CN2CCCC(c3[nH]ncc3S(C)(=O)=O)C2)cnn1C` (centres undefined), the cytotoxicity at 70.5 h is -5.66%.

In the case of `CCOCCN1Cc2cnn(C)c2C(COCC)C1` (centres undefined), the cytotoxicity at 70.5 h is 8.6%.

As to `CS(=O)(=O)Cc1nc(CNc2c(F)cc(F)cc2F)cs1`, the cytotoxicity at 70.5 h is -2.82%.

On to `Cc1ccccc1CC(C)NCc1c(C)nn(C)c1N1CCOCC1` (centres undefined), for which the cytotoxicity at 70.5 h is -0.684%.

For the compound `COc1ccc(Cl)cc1NCCC(=O)NCCNc1cnccn1`, the cytotoxicity at 70.5 h came to 3.74%.

Regarding `Cc1ccc(CN(C)C(=O)CN2CCCCC2Cn2cncn2)cc1` (centres undefined), the cytotoxicity at 70.5 h was determined as 22.7%.

As for `CCC(CC)C(=O)N1CCOC2(CNC2)C1`, the cytotoxicity at 70.5 h amounted to 6.77%.

Consider `O=S(=O)(c1cc(F)cc(F)c1)N1CCC(Oc2ccc(Cl)cn2)CC1`, for which the cytotoxicity at 70.5 h is 2%.

For the compound `c1cc(COC[C@]23COC[C@H]2CN(Cc2ccsc2)C3)ccn1`, the cytotoxicity at 70.5 h was 7.32%.

Regarding `O=C(CCC(=O)N1CCc2[nH]c3ccccc3c2C1)NCc1ccco1`, the cytotoxicity at 70.5 h is -8.42%.

As to `CC(C)(C)c1ccn(C2(C(=O)O)CCN(c3ccncc3F)CC2)n1`, the cytotoxicity at 70.5 h was -8.89%.

Consider `CCn1nc(C)c(CCNC(=O)C2CCCN(C3CCCC3)C2)c1C` (centres undefined), for which the cytotoxicity at 70.5 h was found to be 20.4%.

Turning to `CC(O)CN(C)C(=O)Nc1ccn(-c2cccc(C(F)(F)F)c2)n1` (centres undefined), the cytotoxicity at 70.5 h was -3.19%.

Turning to `CN(C)CCN1CCN(Cc2cccc(C#N)c2)Cc2cccnc21`, the cytotoxicity at 70.5 h is -2.4%.

Consider `O=C(CCN1CCOCC1)Nc1cccc(CNCc2ccsc2)c1`, for which the cytotoxicity at 70.5 h is 14.1%.

For the compound `O=S(=O)(CCN1CCN(c2ccccc2O)CC1)c1ccc(Br)cc1`, the cytotoxicity at 70.5 h was -8.18%.

Take `COCC(=O)N1CCC2(CC(C(=O)NCc3cccnc3)=NO2)C1` (centres undefined): the cytotoxicity at 70.5 h was -5.23%.

On to `Cc1ccc(NC(=O)NC(C)Cn2cccn2)cc1` (centres undefined), for which the cytotoxicity at 70.5 h was -11.9%.

With `Cc1nccn1C1CCCN(C(=O)CCc2nc(C(C)C)no2)C1` (centres undefined), the cytotoxicity at 70.5 h was -11.2%.

Consider `CCN1CCc2cc(-c3cncn3CC(=O)NC(C)(C)C)ccc21`, for which the cytotoxicity at 70.5 h is -6.27%.

Turning to `CC(C)c1nn(C)c(N(C)C)c1CNCc1ccc2c(c1)OCO2`, the cytotoxicity at 70.5 h stood at 2.49%.

`CC/C=C(/C)C(=O)NCc1ccnc(OC)c1`: the cytotoxicity at 70.5 h was -8.93%.

As to `CCc1ccc(CN(C)Cc2nc(COc3ccccc3)no2)nc1`, the cytotoxicity at 70.5 h was -7.21%.

Consider `CN(C)C(=O)[C@@H]1C[C@@H]2CCN(Cc3ccncc3)C[C@@H]2O1`, for which the cytotoxicity at 70.5 h is -11.6%.

Take `Cc1cc(N2CCC(Cc3ncccn3)C2)ncn1` (centres undefined): the cytotoxicity at 70.5 h is -6.02%.

For `CCOc1ccc(N(CCC#N)C(=O)c2ccc(OC)nc2)cc1`, the cytotoxicity at 70.5 h came out at 1.85%.

With `O=C(CSc1ccccn1)N1CCN(CCO)[C@@H]2CS(=O)(=O)C[C@@H]21`, the cytotoxicity at 70.5 h is 2.3%.

`CNS(=O)(=O)CC1CCCN1C(=O)c1ccc(C)c(C)c1` (centres undefined): the cytotoxicity at 70.5 h turned out to be 25.9%.

On to `Cc1cccc(CN2C[C@@H]3CN(C(=O)c4cnccn4)C[C@@H]3C2=O)c1`, for which the cytotoxicity at 70.5 h was -2.3%.

With `CN(C)C1Cc2ccccc2N(S(=O)(=O)c2ccccc2C#N)C1` (centres undefined), the cytotoxicity at 70.5 h was 34.1%.

On to `COc1ccc(N2CCN(C(=O)COc3c(C)occc3=O)CC2)cc1`, for which the cytotoxicity at 70.5 h was found to be 2.1%.

For `CC(C)c1nnc2n1CCN(C(=O)c1ccc(N(C)C)nn1)C2`, the cytotoxicity at 70.5 h turned out to be 2.93%.

In the case of `Cc1ccc(C(=O)NCc2cccnc2N(C)C)o1`, the cytotoxicity at 70.5 h is -12.1%.

Take `Cc1ccc(CN2CC[C@H]3CO[C@H](CN(C)C)[C@H]3C2)o1`: the cytotoxicity at 70.5 h was -11.2%.

Consider `O=C(NCCN1CCOCC1)NCc1cccnc1-n1cccn1`, for which the cytotoxicity at 70.5 h was -2.89%.

As to `CSc1nnc(CC2CCN(C(=O)COc3cccnc3)CC2)n1C`, the cytotoxicity at 70.5 h was -8.54%.

Turning to `O=C(CN1CCOC(CNc2cccnn2)C1)NCc1cccs1` (centres undefined), the cytotoxicity at 70.5 h is -0.0167%.

For `CCCC(C)N(C)Cc1nnc(-c2ccco2)o1` (centres undefined), the cytotoxicity at 70.5 h came to 1.45%.

Consider `O=C1NCC[C@]12CN(Cc1nccs1)C[C@H]2c1ccccc1`, for which the cytotoxicity at 70.5 h is -0.358%.

Take `O=C(O)c1cccc2c(Br)cccc12`: the cytotoxicity at 70.5 h is -0.692%.

`COC(=O)c1ccc(N2CCN(C(=O)c3cnccn3)C(C)C2)cc1` (centres undefined): the cytotoxicity at 70.5 h was -6.45%.

In the case of `Cc1ncc(CNC2CC(=O)N(CCc3ccc(F)cc3)C2)n1C` (centres undefined), the cytotoxicity at 70.5 h was -10.7%.

In the case of `Cc1nc(NC2(CN3CCCCC3)CCCCC2)c2cnn(C)c2n1`, the cytotoxicity at 70.5 h was -18.3%.

With `Clc1ccc(CN2CCC3(CC2)CC(c2cccnc2)=NO3)cc1`, the cytotoxicity at 70.5 h was found to be 3.85%.

Consider `CN1CCC(c2nnc(CN3CCOCC3)n2C)CC1`, for which the cytotoxicity at 70.5 h is -24.5%.

On to `CSC(C)(C)CNC(=O)NC1CCSCC1`, for which the cytotoxicity at 70.5 h was -6.55%.

`COc1ccccc1-n1c(O)cc(C)c(C#N)c1=O`: the cytotoxicity at 70.5 h is -1.09%.

`CN(Cc1ccc2nonc2c1)C(=O)CCc1cc2n(n1)CCCNC2`: the cytotoxicity at 70.5 h is -6.8%.

For `CCc1nc2n(n1)CC(NCc1noc(-c3ccccc3)n1)CC2` (centres undefined), the cytotoxicity at 70.5 h is 12.2%.

For the compound `Cc1ccc(F)c(N2CCCC(NS(=O)(=O)CCCF)C2=O)c1` (centres undefined), the cytotoxicity at 70.5 h is -11.4%.

As to `O=C(Cc1ccc(F)cc1)NS(=O)(=O)c1ccc(F)c(F)c1`, the cytotoxicity at 70.5 h is -2.89%.

With `Cc1cc(COc2ccc(OC3CCCCNC3=O)cc2)on1` (centres undefined), the cytotoxicity at 70.5 h is -3.96%.

As for `Cc1ccccc1NCc1nc2n(n1)CCCCC2`, the cytotoxicity at 70.5 h was found to be 0.338%.

Consider `CN(Cc1cc(C2CC2)on1)C(=O)CN1CC(c2ccccc2)CC1=O` (centres undefined), for which the cytotoxicity at 70.5 h is -8.22%.

With `CCn1c(C2CCCN(Cc3ccnc4ccccc34)C2)nn(C)c1=O` (centres undefined), the cytotoxicity at 70.5 h was -7.68%.

As to `Cc1ccccc1C1(C(=O)NCCN2CCOCC2)CCOCC1`, the cytotoxicity at 70.5 h was -9.98%.

With `Cc1ccccc1CC(=O)N1C[C@@H](O)[C@H](N2CCOCC2)C1`, the cytotoxicity at 70.5 h worked out at 3.85%.

For `Cc1ccc(N(C)CC(O)COCc2ccccc2F)c(C)c1` (centres undefined), the cytotoxicity at 70.5 h is -0.728%.

Turning to `Cn1cc(CNc2ccc(CCN3CCC(C(N)=O)CC3)cc2)cn1`, the cytotoxicity at 70.5 h came out at 13.6%.

On to `Cc1cc2[nH]c(O)nc2cc1NCc1ccc(F)cc1`, for which the cytotoxicity at 70.5 h was -10.2%.

Regarding `COc1cc(CNC(c2ccccc2)c2nccn2C)cc(OC)c1` (centres undefined), the cytotoxicity at 70.5 h was determined as 0.143%.

Consider `CC(=O)NC1CCCN(C(=O)NCc2cc[nH]n2)C1` (centres undefined), for which the cytotoxicity at 70.5 h was -1.94%.

On to `CN1CCC(N2C[C@H](O)C[C@H]2c2nc(Cc3ccccc3)no2)CC1`, for which the cytotoxicity at 70.5 h was -7.37%.

On to `COCc1cccc(CNCc2c(C)nn(C)c2N2CCOCC2)c1`, for which the cytotoxicity at 70.5 h was -12.5%.

`CS(=O)(=O)c1ccccc1C(=O)NCC1Cc2ccccc2O1` (centres undefined): the cytotoxicity at 70.5 h was -4.69%.

`O=C1CCCN1Cc1nnn2c1CN(c1cccnc1)CCC2`: the cytotoxicity at 70.5 h was -8.56%.

As to `Cn1cc(Cl)cc1C(=O)N1CCN(Cc2ccsc2)CC1`, the cytotoxicity at 70.5 h is 0.559%.

Turning to `c1csc(CN2CCOCC3(CCN(C4CCOCC4)C3)C2)c1` (centres undefined), the cytotoxicity at 70.5 h is -16.8%.

`CN(C)C(=O)c1cccc(C[S+]([O-])CC(=O)NC2CCCC2)c1` (centres undefined): the cytotoxicity at 70.5 h stood at 5.53%.

Take `CCN(CC)Cc1cn2c(n1)CN(C(=O)c1cnccn1)CC2`: the cytotoxicity at 70.5 h is -13.4%.

As to `Cc1nc(Nc2cnccn2)cc(C2CCCN2C2CCOCC2)n1` (centres undefined), the cytotoxicity at 70.5 h was -5.63%.

Turning to `Cn1cc(C2SCC(=O)Nc3c2c(=O)[nH]n3C2CCOCC2)cn1` (centres undefined), the cytotoxicity at 70.5 h stood at 17.2%.

Turning to `Cc1cccc(-c2c[nH]c(C3CCCN3)n2)c1` (centres undefined), the cytotoxicity at 70.5 h is -7.37%.

`Cc1cc(C)nc(N2CCC(Cn3cc(C(=O)N(C)C)cn3)CC2)n1`: the cytotoxicity at 70.5 h was -3.57%.

`CN(C)CC1(O)CCCN(Cc2ccccc2OCC(=O)N(C)C)C1` (centres undefined): the cytotoxicity at 70.5 h stood at 2.4%.

Take `CC(=O)N1CCc2c(nc(N(C)C)nc2NCCc2cccs2)C1`: the cytotoxicity at 70.5 h was -5.76%.

Turning to `COc1ccc(NC(=O)c2nc3ccccc3n(C)c2=O)c(OC)c1`, the cytotoxicity at 70.5 h is -0.905%.

As to `Cc1csc2c(=O)n3c(nc12)CCN(C(=O)c1ccccn1)CC3`, the cytotoxicity at 70.5 h is -0.0193%.

For `CN1CC(c2cc(O)nc(NCc3ccccc3Cl)n2)CC1=O` (centres undefined), the cytotoxicity at 70.5 h is -2.82%.

Turning to `O=C1CO[C@H]2CN(S(=O)(=O)c3ccccc3)C[C@H]2N1Cc1ccccn1`, the cytotoxicity at 70.5 h was -15%.
